Reference: patent publication US20110028504A1, “Formulation of radioprotective alpha beta unsaturated aryl sulfones” (ONCONOVA THERAPEUTICS, INC., priority 2005, published 2011)

Columns and labels:
HFL-1 cells = assay: Radioprotection of cultured normal cells, colony count after ionizing radiation; assay type: cell-based, human; conditions: 2.5 to 20 micromolar for 24 hrs before 10 Gy or 15 Gy ionizing radiation, colonies vs DMSO control
Protocol: HFL-1 cells, which are normal diploid lung fibroblasts, were plated into 24 well dishes at a cell density of 3000 cells per 10 mm^2 in DMEM completed with 10% fetal bovine serum and antibiotics. The test compounds listed in Table 28 were added to the cells 24 hours later in select concentrations from 2.5 to 20 micromolar, inclusive, using DMSO as a solvent. Control cells were treated with DMSO alone. The cells were exposed to the test compound or DMSO for 24 hrs. The cells were then irradiated with either 10 Gy (gray) or 15 Gy of ionizing radiation (IR) using a J.L. Shepherd Mark I, Model 30-1 Irradiator equipped with ^137cesium as a source.
After irradiation, the medium on the test and control cells was removed and replaced with fresh growth medium without the test compounds or DMSO. The irradiated cells were incubated for 96 hours and duplicate wells were trypsinized and replated onto 100 mm^2 tissue culture dishes. The replated cells were grown under normal conditions with one change of fresh medium for 3 weeks. The number of colonies from each 100 mm^2 culture dish, which represents the number of surviving cells, was determined by staining the dishes as described below.
To visualize and count the colonies derived from the clonal outgrowth of individual radioprotected cells, the medium was removed and the plates were washed one time with room temperature phosphate buffered saline. The cells were stained with a 1:10 diluted Modified Giemsa staining solution (Sigma) for 20 minutes. The stain was removed, and the plates were washed with tap water. The plates were air dried, the number of colonies from each plate were counted and the average from duplicate plates was determined.
A “+” indicates radioprotective activity of between 2- and 4.5-fold at the concentrations tested. Fold protection was determined by dividing the average number of colonies from the test plates by the average number of colonies on the control plates.

C57 black mice = assay: Protection of mice from radiation toxicity by pre-treatment; assay type: in vivo
Protocol: C57 black mice age 10-12 weeks (Taconic) were divided into two treatment groups of 10 mice each. One group, designated the “200×2” group, received intraperitoneal injections of 200 micrograms (E)-4-carboxystyryl-4-chlorobenzylsulfone dissolved in DMSO (a 10 mg/Kg dose, based on 20 g mice) 18 and 6 hours before irradiation with 8 Gy gamma radiation. The other group, designated “500×2,” received intraperitoneal injections of 500 micrograms (E)-4-carboxystyryl-4-chlorobenzylsulfone dissolved in DMSO (a 25 mg/Kg dose, based on 20 g mice) 18 and 6 hours before irradiation with 8 Gy gamma radiation. A control group of 16 animals received 8 Gy gamma radiation alone.

rodent species = conditions: in vivo; cited from earlier work

Row | Compound | Activity (radioprotective activity, fold protection) (HFL-1 cells) | further results
1 | O=S(=O)(/C=C/c1ccc(F)cc1)Cc1ccc(Cl)cc1 [Compound 1, (E)-4-Fluorostyryl-4-chlorobenzylsulfone] | + (A “+” indicates radioprotective activity of between 2- and 4.5-fold at the concentrations tested) | –
2 | O=S(=O)(/C=C\c1ccc(F)cc1)Cc1ccc(Cl)cc1 [Compound 7, (Z)-4-Fluorostyryl-4-chlorobenzylsulfone] | + (A “+” indicates radioprotective activity of between 2- and 4.5-fold at the concentrations tested) | –
3 | O=S(=O)(/C=C/c1ccoc1)Cc1ccc(Cl)cc1Cl [Compound 8, (E)-3-Furanethenyl-2,4-dichlorobenzylsulfone] | + (A “+” indicates radioprotective activity of between 2- and 4.5-fold at the concentrations tested) | –
4 | O=C(O)c1ccc(/C=C/S(=O)(=O)Cc2ccc(Cl)cc2)cc1 [Compound 13, (E)-4-Carboxystyryl-4-chlorobenzylsulfone] | + (A “+” indicates radioprotective activity of between 2- and 4.5-fold at the concentrations tested) | maximum mortality rate by day 40 (C57 black mice; “200×2” group: 10 mg/Kg intraperitoneal 18 and 6 hours before 8 Gy gamma radiation): approximately 60%; mice dead at day 20 (C57 black mice; “200×2” group: 10 mg/Kg intraperitoneal 18 and 6 hours before 8 Gy gamma radiation (control 80%)): about 50%; maximum mortality rate by day 40 (C57 black mice; “500×2” group: 25 mg/Kg intraperitoneal 18 and 6 hours before 8 Gy gamma radiation): about 50%; mice dead at day 20 (C57 black mice; “500×2” group: 25 mg/Kg intraperitoneal 18 and 6 hours before 8 Gy gamma radiation (control 80%)): about 30%
5 | (E)-2,4,6-Trimethoxystyryl-4-methoxybenzylsulfone [Compound 2] | + (A “+” indicates radioprotective activity of between 2- and 4.5-fold at the concentrations tested) | –
6 | (E)-4-Fluorostyryl-4-chlorophenylsulfone [Compound 10] | + (A “+” indicates radioprotective activity of between 2- and 4.5-fold at the concentrations tested) | –
7 | (E)-4-Fluorostyryl-4-cyanobenzylsulfone [Compound 6] | + (A “+” indicates radioprotective activity of between 2- and 4.5-fold at the concentrations tested) | –
8 | (E)-4-Fluorostyryl-4-trifluoromethylbenzylsulfone [Compound 5] | + (A “+” indicates radioprotective activity of between 2- and 4.5-fold at the concentrations tested) | –
9 | (Z)-Styryl-(E)-2-methoxy-4-ethoxystyrylsulfone [Compound 11] | + (A “+” indicates radioprotective activity of between 2- and 4.5-fold at the concentrations tested) | –
10 | Hydroxypropyl-B-Cyclodextrin [HPCD] | – | toxicity (rodent species): non-toxic
